# Source: article PMC9281440, “In Vivo Distribution and Therapeutic Efficacy of Radioiodine-Labeled pH-Low Insertion Peptide Variant 3 in a Mouse Model of Breast Cancer” (Molecular Imaging, 2022)
# Where “and” joins values, the source holds several entries; their conditions need not be identical. Equal values may be shown once. Read-outs that look alike come from different tables or passages of the source. Peptide text beside a SMILES is read from it.
# Tests used:
# [1] = In vitro stability of radiolabeled peptides in serum at 37°C; type: in vitro ADME; conditions: 37°C in serum, radiochemical purity, thin-layer chromatography
# Method: WT-pHLIP and Var3-pHLIP were labeled with ^125I for in vivo imaging experiments, and Var3-pHLIP was labeled with ^131I for therapeutic efficacy experiments. Radioactive iodine binds to tyrosine residues in pHLIPs. Peptides were dissolved in 200 μL of 0.02 M PBS (pH 7.4) to reach a concentration of 1 mg/mL and mixed with 10 μL of Na^125I (74 MBq) or 20 μL of Na^131I (925 MBq). Chloramine-T (20 μL, 5 mg/mL) was added to the test tubes and mixed for 70 s at room temperature. The reaction was stopped by adding 200 μL of sodium metabisulfite (5 mg/mL). The peptides were eluted in ethanol through a C18 column equilibrated with 20 mL of 100% ethanol and 20 mL of distilled water. The radioactive purity of ^125I-WT-pHLIP, ^125I-Var3-pHLIP, and ^131I-Var3-pHLIP was determined using thin-layer chromatography. Furthermore, the radiochemical purity of ^125I-WT-pHLIP, ^125I-Var3-pHLIP, and ^131I-Var3-pHLIP was measured, and chemical stability was determined at 24 and 48 h at room temperature (25°C) in PBS and at 37°C in serum.
# MDA-MB-231 cells = assay: In vitro cell binding assay of 125I-labeled peptides; type: cell-based, human; conditions: 37°C, mean ± SD, triplicate; for binding fraction to cells, B/(B + F) × 100%: γ counter
# Method: Cells were incubated with ^125I-WT-pHLIP or ^125I-Var3-pHLIP for 1 h at 37°C in the medium at different pH values ranging from 6.2 to 7.8 (6.2, 6.6, 7.0, 7.4, 7.8). At the same time, cells in the medium at pH 6.2 were further incubated with ^125I-labeled peptide with an excess of unlabeled peptide (25 μg/well). The supernatant was aspirated into a tube. The cells were then washed twice with PBS of the corresponding pH to remove unbound radioactivity. The wash solution was also added to the supernatant tube containing free radioactivity (F). The cells with bound radioactivity (B) were completely lysed with 300 μl sodium hydroxide and aspirated into a cell tube. The radioactive counts of the cell and supernatant tube were measured by a γ counter. The cell binding fraction of the ^125I-labeled peptides was calculated as B/(B + F) × 100%. All experiments were performed in triplicate.
# [2] = system: MDA-MB-231 tumor-bearing nude mice; assay: Micro-SPECT/CT imaging and distribution of 125I-labeled pHLIPs; type: in vivo, mouse; conditions: MDA-MB-231 xenografts
# Method: (§1) Five-week-old female athymic BALB/c nude mice (Shanghai Slaccas Experiment Animal Corp., Shanghai, China) were used in our study. Mouse xenograft models of MDA-MB-231, 4T1, and SK-BR-3 cells were produced by the subcutaneous injection of 5 × 10^6 cells (suspended in 150 μL PBS) into the right axilla of each mouse. The mice were used in subsequent experiments when tumor diameter reached 0.5-0.9 cm. The study protocol was approved by the institutional review board and by the Experimental Animal Center of Ruijin Hospital affiliated to the School of Medicine of Shanghai Jiao Tong University.
# (§2) Three days before micro-SPECT/CT imaging, 300 μL of 1% Kl solution was administered to mice by oral gavage once a day, and 0.1% Kl was added into the drinking water to block thyroid gland activity. Mice-bearing MDA-MB-231, 4T1, or SK-BR-3 tumors were intravenously injected with 3.7 MBq of ^125I-WT-pHLIP or ^125I-Var3-pHLIP. Each group contained four mice. The mice were anesthetized by isoflurane inhalation, placed in the prone position, and scanned using a four-head SPECT/CT system (U-SPECT/CT, MI-Lab, Netherlands) and dedicated multipinhole apertures with a diameter of 1.5 mm at 1, 2, 4, 24, and 48 h after injection of ^125I-labeled peptides. CT images were acquired after static SPECT imaging (10 min/frame). The images were reconstructed using U-SPECT REC software and analyzed using PMOD software version 3.9 (Switzerland). Regions of interest (ROIs) were drawn in the tumors and organs, including the brain, heart, liver, lungs, kidneys, intestine, and bladder, at various time points. The radioactivity per gram (ID%/g) in the ROIs was measured to obtain the dynamic tumor-to-background ratio (TBR, muscle tissue was used as the background) and the in vivo distribution and kinetics of ^125I-WT-pHLIP and ^125I-Var3-pHLIP in the xenograft models of BC.
# [3] = system: SK-BR-3 tumor-bearing nude mice; assay: as above; type: in vivo, mouse
# Method: as §1, §2
# [4] = as above; type: in vivo; conditions: female, mouse, total radioactivity, 4T1 tumor-bearing nude mice, 3.7 MBq iv, micro-SPECT/CT ROI, mean ± SD, n = 4; for tissue uptake at 4 h: 4 h pi; for tissue uptake at 24 h: 24 h pi; for tissue uptake at 48 h: 48 h pi; for tissue uptake at 1 h: 1 h pi; for tissue uptake at 2 h: 2 h pi
# Method: as §1, §2
# [5] = BALB/c nude, read-out: Distribution, Tumor
# [6] = athymic BALB/c nude, bladder, read-out: Distribution, Bladder
# [7] = athymic BALB/c nude, brain, read-out: Distribution, Brain
# [8] = athymic BALB/c nude, heart, read-out: Distribution, Heart
# [9] = athymic BALB/c nude, intestine, read-out: Distribution, Intestine
# [10] = athymic BALB/c nude, kidney, read-out: Distribution, Kidney
# [11] = athymic BALB/c nude, liver, read-out: Distribution, Liver
# [12] = athymic BALB/c nude, lung, read-out: Distribution, Lung
# [13] = athymic BALB/c nude, muscle, read-out: Distribution, Muscle
structure (smiles),measurement,setting,value
CC(C)C[C@H](NC(=O)[C@H](Cc1ccc(O)c(I)c1)NC(=O)[C@H](C)NC(=O)[C@H](CCCNC(=N)N)NC(=O)[C@H](Cc1c[nH]c2ccccc12)NC(=O)[C@@H]1CCCN1C(=O)[C@H](CC(N)=O)NC(=O)[C@H](CCC(N)=O)NC(=O)[C@H](CC(=O)O)NC(=O)[C@H](CC(=O)O)NC(=O)[C@H](CS)NC(=O)[C@H](C)N)C(=O)N[C@@H](CC(=O)O)C(=O)N[C@@H](CC(C)C)C(=O)N[C@@H](CC(C)C)C(=O)N[C@@H](Cc1ccccc1)C(=O)N1CCC[C@H]1C(=O)N[C@H](C(=O)N[C@@H](CC(=O)O)C(=O)N[C@H](C(=O)N[C@@H](CC(C)C)C(=O)N[C@@H](CC(C)C)C(=O)N[C@@H](CC(C)C)C(=O)N[C@@H](CC(=O)O)C(=O)N[C@@H](CC(C)C)C(=O)N[C@@H](CC(C)C)C(=O)N[C@@H](Cc1c[nH]c2ccccc12)C(=O)N[C@@H](CCCCN)C(=O)O)[C@@H](C)O)[C@@H](C)O [125I-Var3-pHLIP] (HELM PEPTIDE1{A.C.D.D.Q.N.P.W.R.A.[O=C([C@H](Cc1ccc(O)c(I)c1)N[*:1])[*:2]].L.D.L.L.F.P.T.D.T.L.L.L.D.L.L.W.K}$$$$V2.0; N-terminus and C-terminus assumed),stability,[1]; 24 h,83.2%
same,stability,[1]; 48 h,82.6%
same,"binding fraction to cells, B/(B + F) × 100%","MDA-MB-231 cells; pH 6.2, 1 h",24.90 ± 0.96%
same,binding fraction to cells with an excess of unlabeled peptide,"MDA-MB-231 cells; pH 6.2, excess unlabeled peptide 25 μg/well",1.50 ± 0.11%
same,"binding fraction to cells, B/(B + F) × 100%","MDA-MB-231 cells; pH 6.6, 1 h",23.88 ± 0.55%
same,"binding fraction to cells, B/(B + F) × 100%","MDA-MB-231 cells; pH 7.0, 1 h",23.40 ± 0.44%
same,"binding fraction to cells, B/(B + F) × 100%","MDA-MB-231 cells; pH 7.4, 1 h",12.3 ± 0.80%
same,"binding fraction to cells, B/(B + F) × 100%","MDA-MB-231 cells; pH 7.8, 1 h",1.30 ± 0.10%
same,time after injection at which radioactive count in xenografts peaked,[2],2 h
same,"Distribution, Tumor","[3]; SK-BR-3 tumor-bearing nude mice, 2 h pi, 3.7 MBq iv, micro-SPECT/CT ROI, mean ± SD, n = 4",2.93 ± 0.71 %ID/g and 2.93 ± 0.70 %ID/g
same,time after injection at which radioactive count in xenografts peaked,[3]; SK-BR-3 xenografts,2 h
same,tissue uptake at 4 h,[4]; [5],3.4 ± 0.73 %ID/g
same,tissue uptake at 24 h,[4]; [5],0.21 ± 0.07 %ID/g
same,tissue uptake at 48 h,[4]; [5],0.12 ± 0.04 %ID/g
same,tissue uptake at 1 h,[4]; [6],33.7 ± 21.1 %ID/g
same,tissue uptake at 2 h,[4]; [6],24.9 ± 10.8 %ID/g
same,tissue uptake at 4 h,[4]; [6],42.7 ± 17.6 %ID/g
same,tissue uptake at 24 h,[4]; [6],2.83 ± 1.65 %ID/g
same,tissue uptake at 48 h,[4]; [6],0.21 ± 0.13 %ID/g
same,tissue uptake at 1 h,[4]; [7],1.44 ± 0.24 %ID/g
same,tissue uptake at 2 h,[4]; [7],1.32 ± 0.49 %ID/g
same,tissue uptake at 4 h,[4]; [7],1.04 ± 0.47 %ID/g
same,tissue uptake at 24 h,[4]; [7],0.16 ± 0.1 %ID/g
same,tissue uptake at 48 h,[4]; [7],0.13 ± 0.09 %ID/g
same,tissue uptake at 1 h,[4]; [8],14.4 ± 2.44 %ID/g
same,tissue uptake at 2 h,[4]; [8],11 ± 2.39 %ID/g
same,tissue uptake at 4 h,[4]; [8],8.21 ± 2.03 %ID/g
same,tissue uptake at 24 h,[4]; [8],0.36 ± 0.16 %ID/g
same,tissue uptake at 48 h,[4]; [8],0.17 ± 0.05 %ID/g
same,tissue uptake at 1 h,[4]; [9],3.65 ± 0.64 %ID/g
same,tissue uptake at 2 h,[4]; [9],3.63 ± 1.19 %ID/g
same,tissue uptake at 4 h,[4]; [9],3.23 ± 0.7 %ID/g
same,tissue uptake at 24 h,[4]; [9],0.28 ± 0.15 %ID/g
same,tissue uptake at 48 h,[4]; [9],0.14 ± 0.11 %ID/g
same,tissue uptake at 1 h,[4]; [10],7.98 ± 3.12 %ID/g
same,tissue uptake at 2 h,[4]; [10],7.97 ± 2.23 %ID/g
same,tissue uptake at 4 h,[4]; [10],4.99 ± 2.04 %ID/g
same,tissue uptake at 24 h,[4]; [10],0.39 ± 0.3 %ID/g
same,tissue uptake at 48 h,[4]; [10],0.2 ± 0.13 %ID/g
same,tissue uptake at 1 h,[4]; [11],14.9 ± 3.55 %ID/g
same,tissue uptake at 2 h,[4]; [11],13.2 ± 2.28 %ID/g
same,tissue uptake at 4 h,[4]; [11],12.6 ± 3.61 %ID/g
same,tissue uptake at 24 h,[4]; [11],0.6 ± 0.16 %ID/g
same,tissue uptake at 48 h,[4]; [11],0.23 ± 0.04 %ID/g
same,tissue uptake at 1 h,[4]; [12],13.8 ± 3.09 %ID/g
same,tissue uptake at 2 h,[4]; [12],11.3 ± 3.09 %ID/g
same,tissue uptake at 4 h,[4]; [12],9.4 ± 2.45 %ID/g
same,tissue uptake at 24 h,[4]; [12],0.48 ± 0.15 %ID/g
same,tissue uptake at 48 h,[4]; [12],0.19 ± 0.1 %ID/g
same,tissue uptake at 1 h,[4]; [13],1.41 ± 0.61 %ID/g
same,tissue uptake at 2 h,[4]; [13],1.03 ± 0.19 %ID/g
same,tissue uptake at 4 h,[4]; [13],0.8 ± 0.26 %ID/g
same,tissue uptake at 24 h,[4]; [13],0.06 ± 0.04 %ID/g
same,tissue uptake at 48 h,[4]; [13],0.03 ± 0.03 %ID/g
same,tissue uptake at 1 h,"[4]; athymic BALB/c nude, read-out: Distribution, Tumor",4.26 ± 1.24 %ID/g
